# Measurements reported in patent US10751337B2, “Preservative free ocular compositions and methods for using the same for treating dry eye disease and other eye disorders” (The Board of Trustees of the University of Illinois, priority 2015, dated 2020).
# Experiments:
# Sjogren dry eye syndrome = details: person; 0.15% twice a day in both eyes
# [1] = system: Evaporative dry eye (EDE) attributable to LASIK refractive surgery; details: person after LASIK; eye drops 0.15% in both eyes; most recent follow up
# Source text: The patient treated was a person with severe symptoms of ocular discomfort. The patient had undergone LASIK refractive surgery in both eyes. The prior treatment history was that the patient was on doxycycline pills, warm compresses, erythromycin ointment and intermittently on steroid eye drops. […] The patient instilled the eye drops on the surface of the eye and spread the excess eye drops to both eye lid margins.
# [2] = system: mixed dry eye disease (severe tear deficiency Meibomian gland dysfunction (MGD)); details: one patient
# [3] = system: Non-Sjogren dry eye syndrome (Meibomian gland dysfunction); experiment: Treatment of a patient with non-Sjogren dry eye syndrome, MGD not due to ocular GVHD (Example 4); details: person, 0.15% twice a day
# [4] = system: Meibomian gland dysfunction (MGD) in patients with chronic ocular Graft-Versus-Host-Disease (oGVHD); experiment: Treatment of chronic ocular GVHD patients with Meibomian gland dysfunction, SGA and CGI assessment (Example 2)
# [5] = ocular GVHD patients with MGD, summary statement
compound,measurement,setting,value
"Brc1c(NC2=NCCN2)ccc2nccnc12 [brimonidine, 5-Bromo-N-(4,5-dihydro-1H-imidazol-2-yl) quinoxalin-6-amine]",patient-reported symptoms and redness,Sjogren dry eye syndrome,improvement in symptoms and redness
same,patient-reported improvement of symptoms since starting treatment,[1],90%
same,conjunctival and eyelid margin redness,"[2]; 0.15% aqueous solution twice a day to eyelash and eyelid margin area, 15 minutes after application",significant reduction
same,patient-reported symptoms of ocular discomfort,"[2]; 0.15% aqueous solution twice a day, after applying",reduced
same,side effects,[3],No side effects were reported
same,tolerability of the drops,[3],tolerated well
same,patient-reported redness of both eyes,[3]; most recent follow up,reduction in redness of both eyes
same,patient-reported symptoms of dryness and burning,[3]; most recent follow up,reduction in symptoms of dryness and burning
same,patients who did not report any change (SGA),"[4]; 18 patients (n=2), 0.15% twice a day",11%
same,patients who reported improvement (SGA),"[4]; 18 patients (n=6), 0.15% twice a day",33%
same,patients who reported much improvement (SGA),"[4]; 18 patients (n=10), 0.15% twice a day",55%
same,patients with moderate to marked improvements in CGI,"[4]; 18 patients (n=15), 0.15% twice a day",83%
same,patients clinically worsened (CGI),"[4]; 18 patients, 0.15% twice a day",No patients had clinically worsened
same,patients reporting worsening of symptoms or signs (SGA),"[4]; 18 patients, 0.15% twice a day",No patients reported worsening of symptoms or signs
same,tolerability of the eye drops,"[4]; 18 patients, 0.15% twice a day",easily tolerated
same,"Subjective Global Assessment (SGA), mean (±SD)","[4]; 18 patients, five point scale (Much worse to Much improved), 0.15% one drop twice a day, followed 6 months or more",4.4±0.69
same,"Clinical Global Impression (CGI), mean (±SD)","[4]; 18 patients, seven point scale (Marked worsening to Marked improvement), 0.15% twice a day",6.2±0.88
same,patients tested with a beneficial effect,[4]; [5],approximately 90%
same,side effects,[4]; [5],without significant side effects
